Reference: PMC7774954, “Interactomic affinity profiling by holdup assay: Acetylation and distal residues impact the PDZome-binding specificity of PTEN phosphatase” (PLoS ONE, 2020)

Tests used:
MAGI1 PDZ 3 = target: T1, MAGI1 PDZ 3 (Homo sapiens, UniProt Q96QZ7); assay: Holdup assay, MAGI1-3; assay type: binding
T1 construct: made in house; host or cells: E. coli
Experimental: (§1) The holdup assay was performed on a Tecan freedom Evo200 robot with 384-well plates in singlicate for the three 11-mer PTEN variants and the 13-mer PTEN peptide as described in [31, 32]. Briefly, prior to interaction assay, 2.5 μL of streptavidin resin was saturated in each well with 20 μL of biotinylated PBM peptides (42 μM) and then washed twice with an excess of free biotin, while the reference resin was incubated only with biotin. Right before the holdup experiment, the PDZ library was spiked with an internal standard of lysozyme. Then, the biotin- or PBM-saturated resin was incubated, each in a distinct well of a 384-well plate, with complete cell lysates diluted so that the concentration of the tag-PDZ present in the crude extract is adjusted at 4 μM. After a sufficient time to reach complex equilibrium (15 min.), a fast and mild filtration step is performed and the tag-PDZ concentrations were measured by capillary electrophoresis instrument (LabChip GXII, PerkinElmer, Massachusets, USA). Standard markers were used to convert migration time into molecular weight on the LabChip software and inappropriate molecular weight markers were corrected or excluded.
(§2) For filtered data, the BI was extracted with the following equation (Eq 1) that estimates the depleted fraction after superimposition of the sample and reference electropherograms: BI=Iref−Ilig/Iref (1) where Iref and Ilig are the intensities of the tag-PDZ peaks measured, for each PDZ domain/PBM peptide interaction pair, in the biotin reference and the PBM electropherograms, respectively.
(§3) BIs were transformed into dissociation constants (KD) using the following formula: KD=([PDZtot]−BI·[PDZtot])·([PBMtot]−BI·[PDZtot])/BI·[PDZtot] (2) where [PDZtot] and [PBMtot] correspond to the total concentrations of the PDZ domain (usually around 4 μM) and the PBM peptide used during the assay. Since the PBMtot concentration in the resin during the holdup assay parameter may differ from one peptide to another and remains unknown, it is impossible to directly convert BI values into KD constants. We systematically determined the KD constants for a subset of PDZ/PBM pairs by competitive FP. […] For each PBM, the average peptide concentration was calculated after outlier rejection based on the absolute distances from the median as compared to three times the standard deviation (3σ rule), with never more than 2 values rejected.

SNTB2 PDZ 1 = target: T2, SNTB2 PDZ 1 (Homo sapiens, UniProt Q13425); assay: Holdup assay, SNTB2-1; assay type: binding; settings: PDZ domain SNTB2-1
T2 construct: made in house; host or cells: E. coli
T2 sequence (Q13425 115-198 limits assumed): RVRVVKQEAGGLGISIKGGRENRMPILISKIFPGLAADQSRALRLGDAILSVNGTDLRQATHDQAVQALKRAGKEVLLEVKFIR
Experimental: as §1, §2, §3

APBA3-2 = assay: Holdup assay, APBA3-2; assay type: binding, human
ARHGAP21-1 = assay: Holdup assay, ARHGAP21-1; assay type: binding, human
ARHGEF12-1 = target: T3, ARHGEF12-1 (Homo sapiens, UniProt Q9NZN5); assay: Holdup assay, ARHGEF12-1; assay type: binding
T3 sequence (Q9NZN5 72-151): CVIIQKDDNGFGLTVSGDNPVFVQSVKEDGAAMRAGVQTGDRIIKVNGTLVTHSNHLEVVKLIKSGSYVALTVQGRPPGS

DLG2-2 = DLG2-2 (Homo sapiens, UniProt Q15700); assay: Holdup assay, DLG2-2; assay type: binding
FRMPD2-1 = assay: Holdup assay, FRMPD2-1; assay type: binding, human
GOPC-1 = GOPC-1 (Homo sapiens, UniProt Q9HD26); assay: Holdup assay, GOPC-1; assay type: binding
GORASP2-1 = GORASP2-1 (Homo sapiens, UniProt Q9H8Y8); assay: Holdup assay, GORASP2-1; assay type: binding
GRIP1-2 = assay: Holdup assay, GRIP1-2; assay type: binding, human
GRIP1-3 = assay: Holdup assay, GRIP1-3; assay type: binding, human
GRIP2-1 = assay: Holdup assay, GRIP2-1; assay type: binding, human
HTRA3-1 = assay: Holdup assay, HTRA3-1; assay type: binding, human
IL16-2 = assay: Holdup assay, IL16-2; assay type: binding, human
IL16-4 = assay: Holdup assay, IL16-4; assay type: binding, human
INADL-6 = INADL-6 (Homo sapiens, UniProt Q8NI35); assay: Holdup assay, INADL-6; assay type: binding
LIMK2-1 = target: T4, LIMK2-1 (Homo sapiens, UniProt P53671); assay: Holdup assay, LIMK2-1; assay type: binding
T4 sequence (P53671 152-239): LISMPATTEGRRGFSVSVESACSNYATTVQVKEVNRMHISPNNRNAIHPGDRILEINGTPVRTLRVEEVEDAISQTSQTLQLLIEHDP

LNX2-2 = target: T5, LNX2-2 (Homo sapiens, UniProt Q8N448); assay: Holdup assay, LNX2-2; assay type: binding
T5 sequence (Q8N448 339-422): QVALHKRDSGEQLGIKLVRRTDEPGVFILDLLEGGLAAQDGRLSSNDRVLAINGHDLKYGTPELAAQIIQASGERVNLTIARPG

MAGI1-1 = assay: Holdup assay, MAGI1-1; assay type: binding, human
MAGI2-1 = assay: Holdup assay, MAGI2-1; assay type: binding, human
MAGI2-4 = MAGI2-4 (Homo sapiens, UniProt Q86UL8); assay: Holdup assay, MAGI2-4; assay type: binding
MAGI2-5 = MAGI2-5 (Homo sapiens, UniProt Q86UL8); assay: Holdup assay, MAGI2-5; assay type: binding
MPDZ-11 = MPDZ-11 (Homo sapiens, UniProt O75970); assay: Holdup assay, MPDZ-11; assay type: binding
MPDZ-11, sequence (O75970 whole entry): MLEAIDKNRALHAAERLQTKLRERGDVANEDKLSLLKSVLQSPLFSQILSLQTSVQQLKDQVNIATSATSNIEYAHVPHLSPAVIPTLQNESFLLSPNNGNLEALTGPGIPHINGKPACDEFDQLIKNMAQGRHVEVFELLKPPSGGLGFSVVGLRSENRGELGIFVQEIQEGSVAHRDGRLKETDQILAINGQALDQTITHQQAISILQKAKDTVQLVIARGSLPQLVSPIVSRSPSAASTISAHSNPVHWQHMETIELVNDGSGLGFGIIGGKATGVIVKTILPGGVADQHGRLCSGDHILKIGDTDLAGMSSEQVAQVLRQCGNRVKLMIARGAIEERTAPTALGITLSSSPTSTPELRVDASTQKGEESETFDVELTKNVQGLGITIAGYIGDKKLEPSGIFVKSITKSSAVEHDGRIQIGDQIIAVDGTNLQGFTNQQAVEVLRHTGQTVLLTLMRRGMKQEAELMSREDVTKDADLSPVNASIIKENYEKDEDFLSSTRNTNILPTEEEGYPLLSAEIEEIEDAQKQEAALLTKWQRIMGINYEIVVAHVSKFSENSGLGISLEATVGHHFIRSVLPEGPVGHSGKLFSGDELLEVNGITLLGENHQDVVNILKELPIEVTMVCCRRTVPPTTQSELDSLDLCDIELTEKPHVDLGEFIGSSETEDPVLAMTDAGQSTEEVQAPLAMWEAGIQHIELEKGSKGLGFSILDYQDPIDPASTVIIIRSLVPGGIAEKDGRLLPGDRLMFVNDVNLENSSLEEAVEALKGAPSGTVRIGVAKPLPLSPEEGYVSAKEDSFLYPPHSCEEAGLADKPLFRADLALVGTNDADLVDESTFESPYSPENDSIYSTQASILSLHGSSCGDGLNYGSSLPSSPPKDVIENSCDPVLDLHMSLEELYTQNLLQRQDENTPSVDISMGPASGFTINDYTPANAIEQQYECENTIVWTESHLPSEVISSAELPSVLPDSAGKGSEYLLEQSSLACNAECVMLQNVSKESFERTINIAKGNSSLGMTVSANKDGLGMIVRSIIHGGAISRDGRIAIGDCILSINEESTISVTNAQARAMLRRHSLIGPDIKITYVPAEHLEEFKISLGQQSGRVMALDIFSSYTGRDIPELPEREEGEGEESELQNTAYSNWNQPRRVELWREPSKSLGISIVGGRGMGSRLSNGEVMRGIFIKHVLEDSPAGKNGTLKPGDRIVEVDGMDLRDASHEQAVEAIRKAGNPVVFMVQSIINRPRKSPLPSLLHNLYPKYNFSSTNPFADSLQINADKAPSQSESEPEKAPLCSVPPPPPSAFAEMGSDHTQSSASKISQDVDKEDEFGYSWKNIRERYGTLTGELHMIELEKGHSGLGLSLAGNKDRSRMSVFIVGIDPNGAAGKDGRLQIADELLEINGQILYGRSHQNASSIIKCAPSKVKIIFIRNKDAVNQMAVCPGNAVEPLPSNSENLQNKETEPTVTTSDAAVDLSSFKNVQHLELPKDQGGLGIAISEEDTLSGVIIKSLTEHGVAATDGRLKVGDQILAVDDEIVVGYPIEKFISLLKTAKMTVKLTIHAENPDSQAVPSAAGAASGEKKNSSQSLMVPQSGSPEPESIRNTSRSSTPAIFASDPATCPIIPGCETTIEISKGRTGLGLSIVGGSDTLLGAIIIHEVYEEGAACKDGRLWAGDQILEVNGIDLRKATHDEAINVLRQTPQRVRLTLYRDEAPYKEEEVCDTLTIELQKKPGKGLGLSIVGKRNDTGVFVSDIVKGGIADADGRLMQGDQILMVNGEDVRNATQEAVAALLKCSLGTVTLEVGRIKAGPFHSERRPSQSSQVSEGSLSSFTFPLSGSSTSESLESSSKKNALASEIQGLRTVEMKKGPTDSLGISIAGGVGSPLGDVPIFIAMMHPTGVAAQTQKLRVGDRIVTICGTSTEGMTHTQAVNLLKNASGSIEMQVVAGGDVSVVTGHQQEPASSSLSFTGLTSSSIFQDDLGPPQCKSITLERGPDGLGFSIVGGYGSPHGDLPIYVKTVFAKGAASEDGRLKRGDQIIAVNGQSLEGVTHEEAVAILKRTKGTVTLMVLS

INADL-6, sequence (Q8NI35 whole entry): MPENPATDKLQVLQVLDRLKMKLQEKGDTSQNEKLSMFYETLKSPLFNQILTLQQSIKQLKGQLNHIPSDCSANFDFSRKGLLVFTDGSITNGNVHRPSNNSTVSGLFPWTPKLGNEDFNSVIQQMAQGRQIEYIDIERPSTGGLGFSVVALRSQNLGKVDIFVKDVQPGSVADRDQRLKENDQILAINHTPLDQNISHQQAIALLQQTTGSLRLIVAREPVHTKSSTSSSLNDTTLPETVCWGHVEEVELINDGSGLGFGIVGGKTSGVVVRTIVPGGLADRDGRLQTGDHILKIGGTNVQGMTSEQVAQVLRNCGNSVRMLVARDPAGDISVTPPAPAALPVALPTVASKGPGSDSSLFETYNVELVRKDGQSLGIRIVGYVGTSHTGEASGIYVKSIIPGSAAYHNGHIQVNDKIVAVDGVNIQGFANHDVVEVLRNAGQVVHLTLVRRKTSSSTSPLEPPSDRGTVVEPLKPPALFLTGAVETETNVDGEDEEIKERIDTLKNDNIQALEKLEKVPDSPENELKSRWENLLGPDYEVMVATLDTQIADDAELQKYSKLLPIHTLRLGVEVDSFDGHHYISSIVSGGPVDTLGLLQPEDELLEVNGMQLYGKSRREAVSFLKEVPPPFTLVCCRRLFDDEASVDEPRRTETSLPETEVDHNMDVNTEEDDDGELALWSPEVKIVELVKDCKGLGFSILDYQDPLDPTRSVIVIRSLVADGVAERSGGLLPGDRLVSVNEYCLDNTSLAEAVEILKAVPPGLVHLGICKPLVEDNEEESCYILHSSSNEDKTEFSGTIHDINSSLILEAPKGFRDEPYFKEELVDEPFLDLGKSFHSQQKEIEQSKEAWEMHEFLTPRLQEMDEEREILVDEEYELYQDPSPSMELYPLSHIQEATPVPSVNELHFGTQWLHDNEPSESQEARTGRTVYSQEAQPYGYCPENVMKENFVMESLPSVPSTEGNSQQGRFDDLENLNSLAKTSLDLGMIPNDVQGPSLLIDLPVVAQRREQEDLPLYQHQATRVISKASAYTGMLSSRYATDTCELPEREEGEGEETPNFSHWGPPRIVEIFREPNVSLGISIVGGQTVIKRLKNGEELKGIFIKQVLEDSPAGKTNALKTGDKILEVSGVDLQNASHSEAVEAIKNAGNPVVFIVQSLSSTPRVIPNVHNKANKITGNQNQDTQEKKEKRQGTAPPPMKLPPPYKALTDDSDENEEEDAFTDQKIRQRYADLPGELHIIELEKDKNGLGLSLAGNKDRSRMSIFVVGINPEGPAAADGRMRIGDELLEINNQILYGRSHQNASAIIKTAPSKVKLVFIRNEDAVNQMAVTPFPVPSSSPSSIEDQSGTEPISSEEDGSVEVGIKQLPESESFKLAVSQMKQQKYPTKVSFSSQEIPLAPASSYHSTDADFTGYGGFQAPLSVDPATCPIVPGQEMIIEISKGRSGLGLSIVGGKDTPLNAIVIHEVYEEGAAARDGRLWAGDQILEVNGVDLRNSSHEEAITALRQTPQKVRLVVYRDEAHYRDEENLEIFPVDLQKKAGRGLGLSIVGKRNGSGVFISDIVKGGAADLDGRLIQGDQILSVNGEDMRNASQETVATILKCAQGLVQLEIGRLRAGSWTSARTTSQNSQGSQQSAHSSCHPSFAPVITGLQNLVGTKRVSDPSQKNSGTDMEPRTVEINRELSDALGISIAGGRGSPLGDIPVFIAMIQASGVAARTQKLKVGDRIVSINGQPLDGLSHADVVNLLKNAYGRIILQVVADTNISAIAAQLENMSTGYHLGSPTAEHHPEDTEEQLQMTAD
T1 sequence (Q96QZ7 643-721 limits assumed): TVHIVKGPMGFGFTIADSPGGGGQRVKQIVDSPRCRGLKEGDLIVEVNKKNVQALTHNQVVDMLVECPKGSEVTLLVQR
DLG2-2, sequence (Q15700 193-280): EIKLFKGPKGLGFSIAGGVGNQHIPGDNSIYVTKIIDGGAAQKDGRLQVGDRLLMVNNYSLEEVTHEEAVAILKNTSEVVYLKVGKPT

CC[C@H](C)[C@H](NC(=O)[C@H](CCC(N)=O)NC(=O)[C@@H](NC(=O)[C@H](Cc1c[nH]cn1)NC(=O)[C@H](CCC(N)=O)NC(=O)[C@H](CC(=O)O)NC(=O)[C@H](CCC(=O)O)NC(=O)[C@H](CC(=O)O)NC(=O)CCC(=O)NCCCOCCOCCOCCCNC(=O)CCCC[C@@H]1SC[C@@H]2NC(=O)N[C@@H]21)[C@@H](C)O)C(=O)N[C@H](C(=O)N[C@@H](CCCCN)C(=O)N[C@H](C(=O)O)C(C)C)[C@@H](C)O [PTEN_11]
Kd (MAGI1 PDZ 3): 29.6 µM
BI (MAGI1 PDZ 3; MAGI1-3): 0.519
BI (SNTB2 PDZ 1): 0.023
BI (APBA3-2): 0.086
LogKD (APBA3-2): 3.519
BI (ARHGAP21-1): -0.072
LogKD (ARHGAP21-1): 3.519
BI (ARHGEF12-1): 0.392
Kd (ARHGEF12-1): 50.3 µM
BI (DLG2-2): 0.168
BI (FRMPD2-1): -0.044
LogKD (FRMPD2-1): 3.519
BI (GOPC-1): 0.26
Kd (GOPC-1): 93.8 µM
Kd (GORASP2-1): 48 µM
BI (GORASP2-1; GORASP2-1): 0.403
BI (GRIP1-2): 0.006
LogKD (GRIP1-2): 3.519
BI (GRIP1-3): -0.015
LogKD (GRIP1-3): 3.519
BI (GRIP2-1): -0.003
LogKD (GRIP2-1): 3.519
BI (HTRA3-1): 0.05
LogKD (HTRA3-1): 3.519
BI (IL16-2): -0.132
LogKD (IL16-2): 3.519
BI (IL16-4): -0.028
LogKD (IL16-4): 3.519
BI (INADL-6): 0.077
LogKD (INADL-6): 3.519
BI (LIMK2-1): 0.05
LogKD (LIMK2-1): 3.519
BI (LNX2-2): -0.039
LogKD (LNX2-2): 3.519
BI (MAGI1-1): 0.001
LogKD (MAGI1-1): 3.519
BI (MAGI2-1): -0.04
LogKD (MAGI2-1): 3.519
BI (MAGI2-4): 0.06
LogKD (MAGI2-4): 3.519
BI (MAGI2-5): 0.214
Kd (MAGI2-5): 122 µM
BI (MPDZ-11): 0.021
LogKD (MPDZ-11): 3.519
